According to patent US20260217701A1, “SELECTIVE BET INHIBITORS AND USES THEREOF” (Tay Therapeutics Limited, priority 2022, published 2026):
Read-outs that look alike come from different tables or passages of the source.

What was measured:
[1] = Rat PK study #1 (Compound A PO, methylcellulose vs propylene glycol formulation); format: in vivo, Lewis rats; conditions: male, rat, plasma, Lewis rats, PO 10 mg/kg; for concentration at 2 h / concentration at 4 h / concentration at 8 h / concentration at 24 h / AUC(0-t) / Tmax / Cmax / concentration at 0.083 h / concentration at 0.25 h / concentration at 0.5 h / concentration at 1 h: Lewis, po, 10 mg/kg; for Cmax: read-out: Cmax
Procedure: For the first rat pharmacokinetic study, the pharmacokinetics of Compound A were assessed in male Lewis rats. Compound A was prepared in two different formulations (1% methylcellulose and 20% propylene glycol/20% Vitamin E/60% water) according to Table 3A (see Tables 2A and 2D for formulations). The formulations were made fresh prior to use. Animals were divided into two groups based on the compound formulation (n=3/group). The Compound A solutions were administered to animals orally (PO) and animals were then monitored over a 24 h period.
Blood samples (~0.2 mL) were collected according to a schedule (0.083, 0.25, 0.5, 1, 2, 4, 8, and 24 h following the initial dosing) via the jugular vein by cannulation and EDTA-K2 was used as anticoagulant. Within 30 minutes of collection, the samples were centrifuged at approximately 4000 times g-force for 5 minutes at 4° C. to obtain blood plasma. The plasma samples were immediately divided into two aliquots (~75 μL each), transferred to a cryogenic vial, and stored in a freezer at −75±15° C. prior to analysis.
The concentration of Compound A in plasma samples was determined by liquid chromatography-mass spectrometry (LC-MS/MS) using a Shimadzu HPLC (DGU-20A5R; LC-30AD; SIL-30AC; Rack changer II; CTO-31A; and CBM-20A) and an AB API 5500 LC/MS/MS instrument. Samples were analyzed on an Agilent Poroshell 120 EC-C18 4 μm (50×2.1 mm) column. Solution A in the mobile phase was 95% water (0.1% formic acid) and solution B was 95% acetonitrile in water (0.1% formic acid), injection volume was 3 μL, and flow rate was 0.6 mL/min.
To prepare samples for analysis, serial concentrations were prepared by diluting the stock solution of analyte with a 50% acetonitrile in water solution. 5 μL working solutions (5, 10, 20, 50, 100, 500, 1000, 5000, and 10000 ng/ml) were added to 50 μL of the blank Lewis rat plasma to achieve calibration standards of ~0.5 to 1000 ng/ml (0.5, 1, 2, 5, 10, 50, 100, 500, and 1000 ng/ml) in a total volume of 55 μL. Five quality control samples at 1 ng/ml, 2 ng/ml, 5 ng/mL, 50 ng/mL, and 800 ng/mL for plasma were prepared independently of those used for the calibration curves. These QC samples were prepared on the day of analysis in the same way as calibration standards.
55 μL of standards, 55 μL of QC samples and 55 μL of unknown samples (50 μL of unknown rat plasma with 5 μL of blank solution) were added to 200 μL of acetonitrile containing internal standard (IS; verapamil) mixture for precipitating protein respectively. The samples were then vortexed for 30 s. After centrifugation at 4° C., 3900 rpm for 15 min, the supernatant was diluted 3 times with water. 3 μL of diluted supernatant was injected into the LC/MS/MS system for quantitative analysis.

[2] = target: T1, BRD4 BD1 (Homo sapiens, UniProt O60885); assay: NanoBRET bromodomain assay, NanoLuc-BRD4-BD1 in HEK293 cells; format: binding
T1 construct: HEK293 cells were transfected using NanoLuc-BRD4-BD1 or NanoLuc-BRD4-BD2 fusion vectors

[3] = 1% methylcellulose formulation, mean of 3 animals
[4] = 1% methylcellulose formulation, individual animals
[5] = propylene glycol/Vitamin E TPGS/water formulation, individual animals
[6] = propylene glycol/Vitamin E TPGS/water formulation, mean of 3 animals

Cn1cc(-c2ccccc2)c(-c2cn(C)c(=O)c3[nH]c(-c4cnn(C(F)(F)F)c4)cc23)cc1=O [Compound A, 6-methyl-4-(1-methyl-2-oxo-5-phenyl-1,2-dihydropyridin-4-yl)-2-(1-(trifluoromethyl)-1H-pyrazol-4-yl)-1,6-dihydro-7H-pyrrolo[2,3-c]pyridin-7-one]
concentration at 2 h [1, 3]: 23.3 ng/mL
concentration at 4 h [1, 4]: 41.5 ng/mL
concentration at 4 h [1, 3]: 44.6 ng/mL
concentration at 8 h [1, 3]: 49.1 ng/mL
concentration at 24 h [1, 3]: 2.77 ng/mL
AUC(0-t) [1, 4]: 480 ng·h/mL
Tmax [1, 4]: 4 h
Cmax [1, 4]: 41.5 ng/mL
AUC(0-t) [1, 3]: 694 ng·h/mL
Tmax [1, 3]: 6.67 h
Cmax [1, 3]: 53.1 ng/mL
concentration at 0.083 h [1, 5]: 4.79 ng/mL
concentration at 0.083 h [1, 6]: 4.29 ng/mL
concentration at 0.25 h [1, 5]: 44.5 ng/mL
concentration at 0.25 h [1, 6]: 43.8 ng/mL
concentration at 0.5 h [1, 5]: 125 ng/mL
concentration at 0.5 h [1, 6]: 131 ng/mL
concentration at 1 h [1, 5]: 277 ng/mL
concentration at 1 h [1, 6]: 268 ng/mL
concentration at 2 h [1, 5]: 390 ng/mL
concentration at 2 h [1, 6]: 396 ng/mL
concentration at 4 h [1, 5]: 445 ng/mL
concentration at 4 h [1, 6]: 399 ng/mL
concentration at 8 h [1, 5]: 266 ng/mL
concentration at 8 h [1, 6]: 189 ng/mL
concentration at 24 h [1, 5]: 13.1 ng/mL
concentration at 24 h [1, 6]: 12.7 ng/mL
AUC(0-t) [1, 5]: 4950 ng·h/mL
Tmax [1, 5]: 4 h
Cmax [1, 5]: 445 ng/mL
AUC(0-t) [1, 6]: 4040 ng·h/mL
Tmax [1, 6]: 3.33 h
Cmax [1, 6]: 419 ng/mL
AUC(0-inf) [1, 5]: 3510 ng·h/mL
half-life [1, 5]: 4.33 h
MRT inf ([1]; propylene glycol/Vitamin E TPGS/water formulation, individual animals, read-out: MRTInf_obs): 6.39 h
EC50 ([2]; previously determined, reference level for rat plasma concentrations (FIG. 4D), read-out: free EC50 BD1 (converted)): 182 µM
EC50 ([2]; reference level for dog plasma concentrations (Dog PK study #4), read-out: free EC50 BD1 BRD4): 139 µM
